Measured values reported in patent US20230218563A1, “METHODS FOR TREATING OR PREVENTING CHRONIC KIDNEY DISEASE” (Arthrosi Therapeutics, Inc., priority 2020, published 2023).
“And” between values parts separate entries of the source, which are not always exact repeats. Equal values may be shown once. Read-outs that look alike come from different tables or passages of the source.

Legend:
[1] = tested on: urine albumin-to-creatinine ratio (UACR); test: Renal function safety pharmacology study in rats, single oral dose (urine albumin, creatinine, UACR); format: in vivo, Sprague Dawley Rats
Experimental: Cageside and detailed clinical observations, body weights, water consumption, blood clinical chemistry, urine chemistry, and urinalysis were performed. Osmolality, osmolality gap, urine volume, water intake rate, fluid balance, urinary excretion, renal creatinine clearance, renal clearance, free water clearance, and fractional electrolyte clearance were calculated and evaluated. All animals were euthanized on Day 2 after scheduled observations. Blood samples for clinical chemistry analysis were collected from all the animals at 24 hours post dose prior to each scheduled euthanasia. Urine samples for clinical chemistry and urinalysis were collected from all the animals at pre-dose (˜24 hours) and 0-6 hours and 6-24 hours post-dose.

[2] = Phase 1 single dose study, plasma pharmacokinetics in healthy adult males; format: in vivo, human; conditions: for AUC(0-t) / AUC(0-inf) / Tmax / Vd/F / half-life / Cmax: male, human, plasma, po; for Vd/F: read-out: Vz/F
Experimental: The dose groups included Cohort 1 (15 mg or placebo, fasted, oral suspension), Cohort 2 (50 mg or placebo, fasted, suspension), Cohort 3 (100 mg or placebo, fasted, oral suspension), Cohort 4 (150 mg or placebo, fasted, oral suspension), Cohort 6 (50 mg or placebo, fed, oral suspension), and Cohort 7 (50 mg or placebo, fasted, oral capsule). […] An additional 8 subjects received placebo.
The results are consistent with observation in animal testing and higher exposure of S-enantiomer was attributed to the conversion of the R-enantiomer in vivo.

[3] = Phase 2a study, safety and tolerability in gout patients; format: in vivo, human; conditions: 50 mg once daily
Source text: Urine samples were collected for assessment of uric acid excretion. Laboratory safety tests, vital signs, and electrocardiograms were collected throughout the study.

[4] = 4-week toxicity study in Sprague-Dawley rats; format: in vivo
Source text: On Day 29, surviving TS animals (all animals in study) were euthanized and subjected to a full gross necropsy, which included a macroscopic examination of the external surface of the body, all orifices, cranial cavity, external surface of the brain, the thoracic, abdominal and pelvic cavities and their viscera, cervical areas, carcass and genitalia. Organs were weighed as soon as possible from all main study animals at the scheduled necropsies. Tissues from Groups 1 and 5 animals at the terminal sacrifice, from animals found dead or moribund-sacrificed, and gross lesions from all animals, were embedded in paraffin, sectioned, stained with hematoxylin and eosin and examined microscopically by a board certified veterinary pathologist.

[5] = female rats, 5 mg/kg single oral, urine 0-6 h post dose
[6] = female rats, 5 mg/kg single oral, urine 6-24 h post dose
[7] = female rats, 15 mg/kg single oral, urine 0-6 h post dose
[8] = female rats, 15 mg/kg single oral, urine 6-24 h post dose
[9] = female rats, 50 mg/kg single oral, urine 0-6 h post dose
[10] = female rats, 50 mg/kg single oral, urine 6-24 h post dose
[11] = male rats, 10 mg/kg single oral, urine 0-6 h post dose
[12] = male rats, 10 mg/kg single oral, urine 6-24 h post dose
[13] = male rats, 30 mg/kg single oral, urine 0-6 h post dose
[14] = male rats, 30 mg/kg single oral, urine 6-24 h post dose
[15] = male rats, 100 mg/kg single oral, urine 0-6 h post dose
[16] = male rats, 100 mg/kg single oral, urine 6-24 h post dose
[17] = 15 mg single oral, fasted, suspension (C1)
[18] = 50 mg single oral, fasted, IR capsule (C7)
[19] = 50 mg single oral, fasted, suspension (C2)
[20] = 50 mg single oral, fed vs fasted
[21] = 50 mg single oral, fed, suspension (C6)
[22] = 100 mg single oral, fasted, suspension (C3)
[23] = 150 mg single oral, fasted, suspension (C4)
[24] = dose proportionality, 15 to 150 mg fasted
[25] = rats, oral gavage 2, 5, 15 and 50 mg/kg/day, 28 days

SMILES: [2H]c1c([2H])c([2H])c2c(C(=O)c3cc(Br)c(O)c(Br)c3)c(C(C)O)oc2c1[2H] (racemic) [Compound 1, (3,5-dibromo-4-hydroxyphenyl)(2-(1-hydroxyethyl)benzofuran-3-yl-4,5,6,7-d4)methanone]
- % UACR change vs Ctrl [1, 5]: 140%
- % UACR change vs baseline [1, 5]: 73%
- UACR [1, 5]: 102.7 mg/g
- UALB [1, 5]: 33.71 mg/L
- UCRE [1, 5]: 0.328 g/L
- % UACR change vs Ctrl [1, 6]: 19%
- % UACR change vs baseline [1, 6]: 44%
- UACR [1, 6]: 40.3 mg/g
- UALB [1, 6]: 24.2 mg/L
- UCRE [1, 6]: 0.600 g/L
- % UACR change vs Ctrl [1, 7]: −53%
- % UACR change vs baseline [1, 7]: −6%
- UACR [1, 7]: 17.5 mg/g
- UALB [1, 7]: 5.22 mg/L
- UCRE [1, 7]: 0.298 g/L
- % UACR change vs Ctrl [1, 8]: −41%
- % UACR change vs baseline [1, 8]: 9%
- UACR [1, 8]: 20.1 mg/g
- UALB [1, 8]: 11.93 mg/L
- UCRE [1, 8]: 0.593 g/L
- % UACR change vs Ctrl [1, 9]: −38%
- % UACR change vs baseline [1, 9]: −23%
- UACR [1, 9]: 23.4 mg/g
- UALB [1, 9]: 9.58 mg/L
- UCRE [1, 9]: 0.409 g/L
- % UACR change vs Ctrl [1, 10]: −21%
- % UACR change vs baseline [1, 10]: −7%
- UACR [1, 10]: 26.8 mg/g
- UALB [1, 10]: 21.15 mg/L
- UCRE [1, 10]: 0.790 g/L
- % UACR change vs Ctrl [1, 11]: −62%
- % UACR change vs baseline [1, 11]: −62%
- UACR [1, 11]: 14.2 mg/g
- UALB [1, 11]: 6.22 mg/L
- UCRE [1, 11]: 0.438 g/L
- % UACR change vs Ctrl [1, 12]: −32%
- % UACR change vs baseline [1, 12]: 23%
- UACR [1, 12]: 28.3 mg/g
- UALB [1, 12]: 14.79 mg/L
- UCRE [1, 12]: 0.523 g/L
- % UACR change vs Ctrl [1, 13]: −59%
- % UACR change vs baseline [1, 13]: −46%
- UACR [1, 13]: 15.5 mg/g
- UALB [1, 13]: 8.73 mg/L
- UCRE [1, 13]: 0.563 g/L
- % UACR change vs Ctrl [1, 14]: −28%
- % UACR change vs baseline [1, 14]: 31%
- UACR [1, 14]: 29.6 mg/g
- UALB [1, 14]: 12.38 mg/L
- UCRE [1, 14]: 0.418 g/L
- % UACR change vs Ctrl [1, 15]: −63%
- % UACR change vs baseline [1, 15]: −38%
- UACR [1, 15]: 13.9 mg/g
- UALB [1, 15]: 9.25 mg/L
- UCRE [1, 15]: 0.666 g/L
- % UACR change vs Ctrl [1, 16]: −32%
- % UACR change vs baseline [1, 16]: 46%
- UACR [1, 16]: 28.0 mg/g
- UALB [1, 16]: 15.18 mg/L
- UCRE [1, 16]: 0.542 g/L
- CL/F [2, 17]: 1.02 L/h
- Cmax (total) [2, 17]: 1060 ng/mL
- CL/F [2, 18]: 1.01 L/h
- Cmax (total) [2, 18]: 3970 ng/mL
- CL/F [2, 19]: 0.906 L/h
- Cmax (total) [2, 19]: 3330 ng/mL
- change of Cmax in the fed state [2, 20]: ~33%
- decrease of AUC with food [2, 20]: approximately 13%
- CL/F [2, 21]: 1.03 L/h
- Cmax (total) [2, 21]: 2210 ng/mL
- Tmax (median) [2, 21]: 8 h and 8.00 h
- CL/F [2, 22]: 1.04 L/h
- Cmax (total) [2, 22]: 5510 ng/mL
- CL/F [2, 23]: 0.944 L/h
- Cmax (total) [2, 23]: 8330 ng/mL
- Power model intercept, AUCinf (μg · h/mL) [2, 24]: 0.944
- Power model intercept, Cmax (μg/mL) [2, 24]: 0.0966
- AUC(0-t) ([2]; 15 mg, 15 mg single oral, fasted, suspension (C1), read-out: AUC0-24 (total)): 12100 ng·h/mL
- AUC(0-inf) ([2]; 15 mg, 15 mg single oral, fasted, suspension (C1), read-out: AUCinf (total)): 15000 ng·h/mL
- Tmax ([2]; 15 mg, 15 mg single oral, fasted, suspension (C1), read-out: Tmax (median)): 3.5 h
- Vd/F ([2]; 15 mg, 15 mg single oral, fasted, suspension (C1)): 14.1 L
- half-life ([2]; 15 mg, 15 mg single oral, fasted, suspension (C1), read-out: t1/2 (converted)): 9.69 h
- AUC(0-t) ([2]; 50 mg, 50 mg single oral, fasted, IR capsule (C7), read-out: AUC0-24 (total)): 41900 ng·h/mL
- AUC(0-inf) ([2]; 50 mg, 50 mg single oral, fasted, IR capsule (C7), read-out: AUCinf (total)): 51300 ng·h/mL
- Tmax ([2]; 50 mg, 50 mg single oral, fasted, IR capsule (C7), read-out: Tmax (median)): 1.75 h
- Vd/F ([2]; 50 mg, 50 mg single oral, fasted, IR capsule (C7)): 14.9 L
- half-life ([2]; 50 mg, 50 mg single oral, fasted, IR capsule (C7), read-out: t1/2 (converted)): 10.5 h
- AUC(0-t) ([2]; 50 mg, 50 mg single oral, fasted, suspension (C2), read-out: AUC0-24 (total)): 42600 ng·h/mL
- AUC(0-inf) ([2]; 50 mg, 50 mg single oral, fasted, suspension (C2), read-out: AUCinf (total)): 59600 ng·h/mL
- Tmax ([2]; 50 mg, 50 mg single oral, fasted, suspension (C2), read-out: Tmax (median)): 3 h
- Vd/F ([2]; 50 mg, 50 mg single oral, fasted, suspension (C2)): 16 L
- half-life ([2]; 50 mg, 50 mg single oral, fasted, suspension (C2), read-out: t1/2 (converted)): 12.5 h
- AUC(0-inf) ([2]; 50 mg, 50 mg single oral, fasted, read-out: Geometric Least Squares Mean AUCinf, Fasted): 57400 ng·h/mL
- AUC(0-t) ([2]; 50 mg, 50 mg single oral, fasted, read-out: Geometric Least Squares Mean AUClast, Fasted): 57100 ng·h/mL
- Cmax ([2]; 50 mg, 50 mg single oral, fasted, read-out: Geometric Least Squares Mean Cmax, Fasted): 3250 ng/mL
- Cmax ([2]; 50 mg, 50 mg single oral, fed (high-fat, high-calorie meal), read-out: Geometric Least Squares Mean Cmax, Fed): 2170 ng/mL
- AUC(0-t) ([2]; 50 mg, 50 mg single oral, fed, suspension (C6), read-out: AUC0-24 (total)): 34000 ng·h/mL
- AUC(0-inf) ([2]; 50 mg, 50 mg single oral, fed, suspension (C6), read-out: AUCinf (total)): 51200 ng·h/mL
- Tmax ([2]; 50 mg, 50 mg single oral, fed, suspension (C6), read-out: Tmax (median)): 8 h
- Vd/F ([2]; 50 mg, 50 mg single oral, fed, suspension (C6)): 16.3 L
- half-life ([2]; 50 mg, 50 mg single oral, fed, suspension (C6), read-out: t1/2 (converted)): 11.7 h
- AUC(0-inf) ([2]; 50 mg, 50 mg single oral, fed, read-out: Geometric Least Squares Mean AUCinf, Fed): 49900 ng·h/mL
- AUC(0-t) ([2]; 50 mg, 50 mg single oral, fed, read-out: Geometric Least Squares Mean AUClast, Fed): 49600 ng·h/mL
- AUC(0-t) ([2]; 100 mg, 100 mg single oral, fasted, suspension (C3), read-out: AUC0-24 (total)): 71000 ng·h/mL
- AUC(0-inf) ([2]; 100 mg, 100 mg single oral, fasted, suspension (C3), read-out: AUCinf (total)): 99700 ng·h/mL
- Tmax ([2]; 100 mg, 100 mg single oral, fasted, suspension (C3), read-out: Tmax (median)): 4 h
- Vd/F ([2]; 100 mg, 100 mg single oral, fasted, suspension (C3)): 18.6 L
- half-life ([2]; 100 mg, 100 mg single oral, fasted, suspension (C3), read-out: t1/2 (converted)): 12.5 h
- AUC(0-t) ([2]; 150 mg, 150 mg single oral, fasted, suspension (C4), read-out: AUC0-24 (total)): 114000 ng·h/mL
- AUC(0-inf) ([2]; 150 mg, 150 mg single oral, fasted, suspension (C4), read-out: AUCinf (total)): 173000 ng·h/mL
- Tmax ([2]; 150 mg, 150 mg single oral, fasted, suspension (C4), read-out: Tmax (median)): 4 h
- Vd/F ([2]; 150 mg, 150 mg single oral, fasted, suspension (C4)): 15.5 L
- half-life ([2]; 150 mg, 150 mg single oral, fasted, suspension (C4), read-out: t1/2 (converted)): 12 h
- Tmax ([2]; single oral dose, fasted conditions, read-out: median Tmax, range over doses): 3 to 5 h
- half-life ([2]; single oral doses 15 to 150 mg, read-out: average terminal half-life): 10 to 13 h
- total plasma clearance ([2]; single oral doses 15 to 150 mg): approximately 1.0 L/hr
- volume of distribution ([2]; single oral doses 15 to 150 mg): 14 to 18 L
- laboratory or ECG abnormalities [3]: no clinically significant laboratory or ECG abnormalities
- tolerability [3]: well tolerated
- NOAEL at 28 days ([4]; Sprague-Dawley, rat, in vivo, po): 50 mg/kg
- NOAEL, human equivalent ([4]; rat, in vivo): 500 mg
- dose with kidney weight increase, female ([4]; rats, 28 days oral): 50 mg/kg/day
- dose with liver weight increase, female ([4]; rats, 28 days oral): ≥ 15 mg/kg/day
- dose with liver weight increase, male ([4]; rats, 28 days oral): 50 mg/kg/day
- findings at high or mid-high dose after 4 week recovery period ([4]; rats, 28 days oral then 4 week recovery): resolved
- clinical signs [4, 25]: No abnormal clinical signs
- effect on food consumption, body weight [4, 25]: no effect
- mortality [4, 25]: No mortality
